Our source for the T/C values is PubChem BioAssay AID330 (DTP/NCI, 2004).

The subject of this experiment is P388 leukemia ip, CD2F1 mice, survival T/C. Kind of experiment: NCI In Vivo Anticancer Drug Screen. Data for tumor model P388 Leukemia (intraperitoneal) in CD2F1 (CDF1) mice. Particulars: endpoint: median survival time, higher = longer survival. The gist of the method:
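Mice carrying the transplanted tumor received test compound or vehicle. Survival was recorded in each group, and the value is the treated-group measurement divided by that of the vehicle-treated control group.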

Setting [1] is: dose: 25.0 mg/kg/injection, schedule: Q01DX009 (ip), vehicle: saline with Tween-80.
Where [2] appears, read: dose: 60.0 mg/kg/injection, schedule: Q01DX005 (ip), vehicle: saline with Tween-80.
The mark [3] stands for this setting: dose: 120.0 mg/kg/injection, schedule: Q01DX005 (ip), vehicle: saline with Tween-80.
Where [4] appears, read: dose: 240.0 mg/kg/injection, schedule: Q01DX005 (ip), vehicle: saline with Tween-80.
The mark [5] stands for this setting: dose: 50.0 mg/kg/injection, schedule: Q01DX009 (ip), vehicle: saline with Tween-80.
The mark [6] stands for this setting: dose: 100.0 mg/kg/injection, schedule: Q01DX009 (ip), vehicle: saline with Tween-80.
Setting [7] is: dose: 200.0 mg/kg/injection, schedule: Q01DX009 (ip), vehicle: saline with Tween-80.
[8] abbreviates: dose: 100.0 mg/kg/injection, schedule: Q04DX003 (ip), vehicle: saline with Tween-80.
Where [9] appears, read: dose: 200.0 mg/kg/injection, schedule: Q04DX003 (ip), vehicle: saline with Tween-80.
[10] abbreviates: dose: 50.0 mg/kg/injection, schedule: Q01DX005 (ip), vehicle: Klucel (hydroxypropylcellulose) (HPC).
Where [11] appears, read: dose: 100.0 mg/kg/injection, schedule: Q01DX005 (ip), vehicle: Klucel (hydroxypropylcellulose) (HPC).
Setting [12] is: dose: 25.0 mg/kg/injection, schedule: Q01DX009 (ip), vehicle: Klucel (hydroxypropylcellulose) (HPC).
Setting [13] is: dose: 50.0 mg/kg/injection, schedule: Q01DX009 (ip), vehicle: Klucel (hydroxypropylcellulose) (HPC).
The mark [14] stands for this setting: dose: 100.0 mg/kg/injection, schedule: Q01DX009 (ip), vehicle: Klucel (hydroxypropylcellulose) (HPC).
Where [15] appears, read: dose: 200.0 mg/kg/injection, schedule: Q01DX009 (ip), vehicle: Klucel (hydroxypropylcellulose) (HPC).

Several values for one entry are separate records, joined by “and”; a condition that tells them apart may be missing. Identical values can stand only once. Inconclusive results and toxic doses are left out.

With `Nc1ccccc1SC1=C(Cl)C(=O)c2ccccc2C1=O`, the T/C is 95 % of control (dose: 6.25 mg/kg/injection, schedule: Q01DX009 (ip), vehicle: saline with Tween-80); 94 % of control (dose: 12.5 mg/kg/injection, schedule: Q01DX009 (ip), vehicle: saline with Tween-80); 103 % of control under setting [1].

For `C#CC(C)ON1C(=O)c2ccccc2C1=O` (stereo unspecified), the T/C (dose: 100.0 mg/kg/injection, schedule: Q01DX001 (ip), vehicle: other) is 109 % of control; the T/C (dose: 200.0 mg/kg/injection, schedule: Q01DX001 (ip), vehicle: other) is 100 % of control; the T/C (dose: 400.0 mg/kg/injection, schedule: Q01DX001 (ip), vehicle: other) was 100 % of control.

`CCC1OC(=O)C2C(c3ccccc3)=NOC2[C@H]1C` (stereo partly specified): the T/C was 102 % of control under setting [2], 101 % of control under setting [3] and 94 % of control under setting [4].

Regarding `CC1=C(c2ccccc2)OS(=O)(=O)NC1=O`, the T/C (dose: 25.0 mg/kg/injection, schedule: Q01DX009 (ip), vehicle: water) was 114 % of control; the T/C (dose: 50.0 mg/kg/injection, schedule: Q01DX009 (ip), vehicle: water) was 104 % of control; the T/C (dose: 100.0 mg/kg/injection, schedule: Q01DX009 (ip), vehicle: water) is 106 % of control; the T/C (dose: 200.0 mg/kg/injection, schedule: Q01DX009 (ip), vehicle: water) was 103 % of control; the T/C (dose: 400.0 mg/kg/injection, schedule: Q01DX009 (ip), vehicle: water) is 113 % of control.

As for `NC1=NS(=O)(=O)c2ccccc2N1c1ccccc1`, the T/C was 97 % of control (dose: 100.0 mg/kg/injection, schedule: Q04DX002 (ip), vehicle: saline with Tween-80); 103 % of control (dose: 200.0 mg/kg/injection, schedule: Q04DX002 (ip), vehicle: saline with Tween-80); 92 % of control (dose: 400.0 mg/kg/injection, schedule: Q04DX002 (ip), vehicle: saline with Tween-80).

Regarding `C[N+](C)(C)/N=C(\[O-])Nc1ccccc1`, the T/C under setting [5] is 100 % of control, the T/C under setting [6] was 104 % of control and the T/C under setting [7] was 89 % of control.

`COC(=O)C1(C(=O)OC)N=C(C)OO1`: the T/C is, setting by setting: (dose: 6.25 mg/kg/injection, schedule: Q01DX009 (ip), vehicle: saline) 99 % of control and 97 % of control; (dose: 12.5 mg/kg/injection, schedule: Q01DX009 (ip), vehicle: saline) 101 % of control and 107 % of control; (dose: 25.0 mg/kg/injection, schedule: Q01DX009 (ip), vehicle: saline) 91 % of control and 97 % of control; (dose: 50.0 mg/kg/injection, schedule: Q01DX009 (ip), vehicle: saline) 96 % of control and 97 % of control; (dose: 100.0 mg/kg/injection, schedule: Q01DX009 (ip), vehicle: saline) 101 % of control.

On to `CCOC(C)c1nc2c([nH]1)c(=O)n(C)c(=O)n2C` (stereo unspecified), for which the T/C reads like this: (dose: 60.0 mg/kg/injection, schedule: Q01DX005 (ip), vehicle: saline) 99 % of control; (dose: 120.0 mg/kg/injection, schedule: Q01DX005 (ip), vehicle: saline) 101 % of control; (dose: 240.0 mg/kg/injection, schedule: Q01DX005 (ip), vehicle: saline) 95 % of control.

`COc1cc(C=Nc2cc(Cl)cc(Cl)c2)ccc1N(CCCl)CCCl`: the T/C under setting [8] was 159 % of control and 172 % of control; the T/C under setting [9] was 181 % of control and 222 % of control; the T/C (dose: 300.0 mg/kg/injection, schedule: Q04DX003 (ip), vehicle: saline with Tween-80) is 204 % of control.

On to `CCOC(=O)c1ccc(NC(=O)NC2=NCCS2)cc1`, for which the T/C reads like this: (dose: 12.5 mg/kg/injection, schedule: Q01DX009 (ip), vehicle: distilled water + Tween-80) 96 % of control; (dose: 25.0 mg/kg/injection, schedule: Q01DX009 (ip), vehicle: distilled water + Tween-80) 93 % of control; (dose: 50.0 mg/kg/injection, schedule: Q01DX009 (ip), vehicle: distilled water + Tween-80) 93 % of control; (dose: 100.0 mg/kg/injection, schedule: Q01DX009 (ip), vehicle: distilled water + Tween-80) 96 % of control; (dose: 200.0 mg/kg/injection, schedule: Q01DX009 (ip), vehicle: distilled water + Tween-80) 87 % of control.

As to `CCCCCC1=CC2(F)C(=O)NC(=O)NC12` (stereo unspecified), the T/C reads like this: (dose: 12.5 mg/kg/injection, schedule: Q01DX005 (ip), vehicle: Klucel (hydroxypropylcellulose) (HPC)) 97 % of control; (dose: 25.0 mg/kg/injection, schedule: Q01DX005 (ip), vehicle: Klucel (hydroxypropylcellulose) (HPC)) 98 % of control; under setting [10], 108 % of control; under setting [11], 95 % of control.

Take `C/C=c1/[nH]c(=O)/c(=C\C=C\c2ccccc2)[nH]c1=O`: the T/C was 106 % of control and 91 % of control under setting [12]; 104 % of control and 91 % of control under setting [13]; 88 % of control and 91 % of control and 95 % of control under setting [14]; 97 % of control under setting [15].

Turning to `O=C1C(O)=C(Cl)C(=O)C(O)=C1Cl`, the T/C runs as follows: (dose: 12.5 mg/kg/injection, schedule: Q01DX005 (ip), vehicle: saline) 111 % of control; (dose: 25.0 mg/kg/injection, schedule: Q01DX005 (ip), vehicle: saline) 101 % of control; (dose: 50.0 mg/kg/injection, schedule: Q01DX005 (ip), vehicle: saline) 110 % of control; (dose: 100.0 mg/kg/injection, schedule: Q01DX005 (ip), vehicle: saline) 90 % of control.

Turning to `O/N=c1\cc(-c2ccccc2)oc2ccccc12`, the T/C (dose: 16.7 mg/kg/injection, schedule: Q01DX009 (ip), vehicle: saline with Tween-80) is 97 % of control; the T/C under setting [1] was 102 % of control; the T/C (dose: 37.5 mg/kg/injection, schedule: Q01DX009 (ip), vehicle: saline with Tween-80) was 100 % of control.

Consider `CC(=O)NC(Cc1cnc[nH]1)C(=O)O` (stereo unspecified), for which the T/C reads like this: under setting [8], 98 % of control; under setting [9], 99 % of control; (dose: 400.0 mg/kg/injection, schedule: Q04DX003 (ip), vehicle: saline with Tween-80) 100 % of control.

As to `c1ccc(NSc2ccccc2)cc1`, the T/C by setting is: under setting [12], 119 % of control; under setting [1], 100 % of control; under setting [13], 103 % of control and 119 % of control; under setting [5], 98 % of control; under setting [14], 101 % of control and 121 % of control; under setting [6], 109 % of control. Further, the T/C by setting is: under setting [15], 106 % of control; under setting [7], 100 % of control.

In the case of `COc1ccc(/C=N/N2C(=O)c3ccccc3C2=O)c(OC)c1`, the T/C runs as follows: under setting [10], 99 % of control; under setting [11], 98 % of control; (dose: 200.0 mg/kg/injection, schedule: Q01DX005 (ip), vehicle: Klucel (hydroxypropylcellulose) (HPC)) 96 % of control.

Regarding `Nc1nnc(-c2ccccc2S)o1`, the T/C runs as follows: under setting [2], 103 % of control; under setting [3], 108 % of control; under setting [4], 110 % of control.

As to `CC(=O)NC(=O)NC(C)=O`, the T/C is 100 % of control (dose: 100.0 mg/kg/injection, schedule: Q01DX001 (ip), vehicle: methylcellulose (MC)); 108 % of control (dose: 200.0 mg/kg/injection, schedule: Q01DX001 (ip), vehicle: methylcellulose (MC)); 100 % of control (dose: 400.0 mg/kg/injection, schedule: Q01DX001 (ip), vehicle: methylcellulose (MC)).
